Patent US20140357512A1, “HISTONE DEACETYLASE (HDAC) BIOMARKERS IN MULTIPLE MYELOMA” (priority 2013, published 2014)

Tested on: human myeloma cell line MM.1S
Assay: Biological pathway analysis of SILAC biomarker peptides against pathway database (broadinstitute gsea)
Protocol: Once biomarker peptides are identified for a specific drug by the SILAC method, the biomarker peptides may be compared to peptides/proteins in a biological pathway database in order to identify major biological pathways or functions implicated by the drug's action. A preferred pathway analysis website is at www dot broadinstitute dot org/gsea/index dot jsp.
This example describes the biological pathway analysis that was performed on each of Compound A, Compound B, and Tubastatin A.
Once biomarker peptides were identified for a specific drug (either Compound A, Compound B, or Tubastatin A) by the SILAC method in Example 1, the biomarker peptides were compared to peptides/proteins in the biological pathway database at www dot broadinstitute dot org/gsea/index dot jsp in order to identify major biological pathways or functions implicated by the drug's action.

With `CN1CCc2c(c3ccccc3n2Cc2ccc(C(=O)NO)cc2)C1` [Tubastatin A, reference compound] the “Observed: number of genes in pathway REACTOME_PACKAGING_OF_TELOMERE_ENDS” value (Pathway_size 48) was 26, the “Ratio observed/pathway size, REACTOME_PACKAGING_OF_TELOMERE_ENDS” value (Pathway_size 48) was 0.5417 and the “Observed: number of genes in pathway REACTOME_RNA_POL_I_PROMOTER_OPENING” value (Pathway_size 61) was 40. The “Ratio observed/pathway size, REACTOME_RNA_POL_I_PROMOTER_OPENING” value (Pathway_size 61) was 0.6557, the “Observed: number of genes in pathway REACTOME_DEPOSITION_OF_NEW_CENPA_CONTAINING_NUCLEOSOMES_AT_THE_CENTROMERE” value (Pathway_size 64) was 27 and the “Ratio observed/pathway size, REACTOME_DEPOSITION_OF_NEW_CENPA_CONTAINING_NUCLEOSOMES_AT_THE_CENTROMERE” value (Pathway_size 64) was 0.4219. For the same compound, the “Observed: number of genes in pathway GCM_TPT1” value (Pathway_size 70) was 28, the “Ratio observed/pathway size, GCM_TPT1” value (Pathway_size 70) was 0.4 and the “Observed: number of genes in pathway REACTOME_MEIOTIC_SYNAPSIS” value (Pathway_size 71) was 27. The “Ratio observed/pathway size, REACTOME_MEIOTIC_SYNAPSIS” value (Pathway_size 71) was 0.3803, the “Observed: number of genes in pathway REACTOME_TELOMERE_MAINTENANCE” value (Pathway_size 75) was 26 and the “Ratio observed/pathway size, REACTOME_TELOMERE_MAINTENANCE” value (Pathway_size 75) was 0.3467. The “Observed: number of genes in pathway STRUCTURAL_CONSTITUENT_OF_RIBOSOME” value (Pathway_size 80) was 28, the “Ratio observed/pathway size, STRUCTURAL_CONSTITUENT_OF_RIBOSOME” value (Pathway_size 80) was 0.35 and the “Observed: number of genes in pathway MIPS_RIBOSOME_CYTOPLASMIC” value (Pathway_size 81) was 32. The “Observed: number of genes in pathway REACTOME_AMYLOIDS” value (Pathway_size 81) was 40, the “Ratio observed/pathway size, MIPS_RIBOSOME_CYTOPLASMIC” value (Pathway_size 81) was 0.3951 and the “Ratio observed/pathway size, REACTOME_AMYLOIDS” value (Pathway_size 81) was 0.4938. The “Observed: number of genes in pathway REACTOME_MEIOTIC_RECOMBINATION” value (Pathway_size 84) was 41, the “Ratio observed/pathway size, REACTOME_MEIOTIC_RECOMBINATION” value (Pathway_size 84) was 0.4881 and the “Observed: number of genes in pathway REACTOME_RNA_POL_I_TRANSCRIPTION” value (Pathway_size 86) was 40. For the same compound, the “Ratio observed/pathway size, REACTOME_RNA_POL_I_TRANSCRIPTION” value (Pathway_size 86) was 0.4651, the “Observed: number of genes in pathway KEGG_RIBOSOME” value (Pathway_size 88) was 33 and the “Ratio observed/pathway size, KEGG_RIBOSOME” value (Pathway_size 88) was 0.375. The “Observed: number of genes in pathway MORF_TPT1” value (Pathway_size 102) was 32, the “Ratio observed/pathway size, MORF_TPT1” value (Pathway_size 102) was 0.3137 and the “Observed: number of genes in pathway MIPS_NOP56P_ASSOCIATED_PRE_RRNA_COMPLEX” value (Pathway_size 104) was 33. The “Ratio observed/pathway size, MIPS_NOP56P_ASSOCIATED_PRE_RRNA_COMPLEX” value (Pathway_size 104) was 0.3173, the “Observed: number of genes in pathway REACTOME_MEIOSIS” value (Pathway_size 112) was 42 and the “Ratio observed/pathway size, REACTOME_MEIOSIS” value (Pathway_size 112) was 0.375. For the same compound, the “Observed: number of genes in pathway GCM_NPM1” value (Pathway_size 116) was 36, the “Ratio observed/pathway size, GCM_NPM1” value (Pathway_size 116) was 0.3103 and the “Observed: number of genes in pathway GNF2_DAP3” value (Pathway_size 119) was 30. The “Observed: number of genes in pathway REACTOME_RNA_POL_I_RNA_POL_III_AND_MITOCHONDRIAL_TRANSCRIPTION” value (Pathway_size 119) was 40, the “Ratio observed/pathway size, GNF2_DAP3” value (Pathway_size 119) was 0.2521 and the “Ratio observed/pathway size, REACTOME_RNA_POL_I_RNA_POL_III_AND_MITOCHONDRIAL_TRANSCRIPTION” value (Pathway_size 119) was 0.3361. For the same compound, the “Observed: number of genes in pathway GNF2_EIF3S6” value (Pathway_size 121) was 33, the “Ratio observed/pathway size, GNF2_EIF3S6” value (Pathway_size 121) was 0.2727 and the “Observed: number of genes in pathway GCM_ACTG1” value (Pathway_size 124) was 34. The “Ratio observed/pathway size, GCM_ACTG1” value (Pathway_size 124) was 0.2742, the “Observed: number of genes in pathway MORF_ACTG1” value (Pathway_size 138) was 39 and the “Ratio observed/pathway size, MORF_ACTG1” value (Pathway_size 138) was 0.2826. For the same compound, the “Observed: number of genes in pathway KEGG_SYSTEMIC_LUPUS_ERYTHEMATOSUS” value (Pathway_size 139) was 47, the “Ratio observed/pathway size, KEGG_SYSTEMIC_LUPUS_ERYTHEMATOSUS” value (Pathway_size 139) was 0.3381 and the “Observed: number of genes in pathway REACTOME_PEPTIDE_CHAIN_ELONGATION” value (Pathway_size 145) was 32. For the same compound, the “Ratio observed/pathway size, REACTOME_PEPTIDE_CHAIN_ELONGATION” value (Pathway_size 145) was 0.2207, the “Observed: number of genes in pathway MORF_NME2” value (Pathway_size 154) was 39 and the “Ratio observed/pathway size, MORF_NME2” value (Pathway_size 154) was 0.2532. For the same compound, the “Observed: number of genes in pathway REACTOME_INFLUENZA_VIRAL_RNA_TRANSCRIPTION_AND_REPLICATION” value (Pathway_size 161) was 33, the “Ratio observed/pathway size, REACTOME_INFLUENZA_VIRAL_RNA_TRANSCRIPTION_AND_REPLICATION” value (Pathway_size 161) was 0.205 and the “Observed: number of genes in pathway MORF_NPM1” value (Pathway_size 162) was 43. The “Ratio observed/pathway size, MORF_NPM1” value (Pathway_size 162) was 0.2654, the “Observed: number of genes in pathway REACTOME_3_UTR_MEDIATED_TRANSLATIONAL_REGULATION” value (Pathway_size 166) was 32 and the “Ratio observed/pathway size, REACTOME_3_UTR_MEDIATED_TRANSLATIONAL_REGULATION” value (Pathway_size 166) was 0.1928. For the same compound, the “Observed: number of genes in pathway REACTOME_NONSENSE_MEDIATED_DECAY_ENHANCED_BY_THE_EXON_JUNCTION_COMPLEX” value (Pathway_size 167) was 32, the “Ratio observed/pathway size, REACTOME_NONSENSE_MEDIATED_DECAY_ENHANCED_BY_THE_EXON_JUNCTION_COMPLEX” value (Pathway_size 167) was 0.1916 and the “Observed: number of genes in pathway REACTOME_SRP_DEPENDENT_COTRANSLATIONAL_PROTEIN_TARGETING_TO_MEMBRANE” value (Pathway_size 170) was 39. The “Ratio observed/pathway size, REACTOME_SRP_DEPENDENT_COTRANSLATIONAL_PROTEIN_TARGETING_TO_MEMBRANE” value (Pathway_size 170) was 0.2294, the “Observed: number of genes in pathway REACTOME_INFLUENZA_LIFE_CYCLE” value (Pathway_size 195) was 37 and the “Ratio observed/pathway size, REACTOME_INFLUENZA_LIFE_CYCLE” value (Pathway_size 195) was 0.1897. The “Observed: number of genes in pathway MORF_ANP32B” value (Pathway_size 197) was 38, the “Ratio observed/pathway size, MORF_ANP32B” value (Pathway_size 197) was 0.1929 and the “Observed: number of genes in pathway REACTOME_TRANSCRIPTION” value (Pathway_size 207) was 45. For the same compound, the “Ratio observed/pathway size, REACTOME_TRANSCRIPTION” value (Pathway_size 207) was 0.2174, the “Observed: number of genes in pathway REACTOME_TRANSLATION” value (Pathway_size 211) was 39 and the “Ratio observed/pathway size, REACTOME_TRANSLATION” value (Pathway_size 211) was 0.1848. The “Observed: number of genes in pathway MORF_UBE2I” value (Pathway_size 238) was 43, the “Ratio observed/pathway size, MORF_UBE2I” value (Pathway_size 238) was 0.1807 and the “Observed: number of genes in pathway MODULE_32” value (Pathway_size 241) was 36. For the same compound, the “Ratio observed/pathway size, MODULE_32” value (Pathway_size 241) was 0.1494, the “Observed: number of genes in pathway MORF_HDAC1” value (Pathway_size 254) was 37 and the “Ratio observed/pathway size, MORF_HDAC1” value (Pathway_size 254) was 0.1457. For the same compound, the “Observed: number of genes in pathway MORF_DEK” value (Pathway_size 262) was 39, the “Ratio observed/pathway size, MORF_DEK” value (Pathway_size 262) was 0.1489 and the “Observed: number of genes in pathway MORF_RAN” value (Pathway_size 268) was 46. The “Ratio observed/pathway size, MORF_RAN” value (Pathway_size 268) was 0.1716, the “Observed: number of genes in pathway MODULE_151” value (Pathway_size 318) was 49 and the “Ratio observed/pathway size, MODULE_151” value (Pathway_size 318) was 0.1541. The “Observed: number of genes in pathway MODULE_83” value (Pathway_size 320) was 50, the “Ratio observed/pathway size, MODULE_83” value (Pathway_size 320) was 0.1562 and the “Observed: number of genes in pathway MODULE_114” value (Pathway_size 338) was 49. The “Ratio observed/pathway size, MODULE_114” value (Pathway_size 338) was 0.145, the “Observed: number of genes in pathway HSIAO_HOUSEKEEPING_GENES” value (Pathway_size 389) was 68 and the “Ratio observed/pathway size, HSIAO_HOUSEKEEPING_GENES” value (Pathway_size 389) was 0.1748. For the same compound, the “Observed: number of genes in pathway MOOTHA_HUMAN_MITODB_6_2002” value (Pathway_size 429) was 46, the “Ratio observed/pathway size, MOOTHA_HUMAN_MITODB_6_2002” value (Pathway_size 429) was 0.1072 and the “Observed: number of genes in pathway REACTOME_METABOLISM_OF_PROTEINS” value (Pathway_size 496) was 56. The “Ratio observed/pathway size, REACTOME_METABOLISM_OF_PROTEINS” value (Pathway_size 496) was 0.1129, the “Observed: number of genes in pathway MARTENS_TRETINOIN_RESPONSE_DN” value (Pathway_size 841) was 63 and the “Ratio observed/pathway size, MARTENS_TRETINOIN_RESPONSE_DN” value (Pathway_size 841) was 0.07491. For the same compound, the “Observed: number of genes in pathway GRADE_COLON_CANCER_UP” value (Pathway_size 870) was 62, the “Ratio observed/pathway size, GRADE_COLON_CANCER_UP” value (Pathway_size 870) was 0.07126 and the “Observed: number of genes in pathway DANG_BOUND_BY_MYC” value (Pathway_size 1102) was 68. For the same compound, the “Ratio observed/pathway size, DANG_BOUND_BY_MYC” value (Pathway_size 1102) was 0.06171, the “Observed: number of genes in pathway CYTOPLASMIC_PART” value (Pathway_size 1383) was 67 and the “Ratio observed/pathway size, CYTOPLASMIC_PART” value (Pathway_size 1383) was 0.04845. The “Observed: number of genes in pathway PUJANA_BRCA1_PCC_NETWORK” value (Pathway_size 1651) was 84, the “Ratio observed/pathway size, PUJANA_BRCA1_PCC_NETWORK” value (Pathway_size 1651) was 0.05088 and the “Observed: number of genes in pathway CYTOPLASM” value (Pathway_size 2130) was 83. The “Ratio observed/pathway size, CYTOPLASM” value (Pathway_size 2130) was 0.03897.
